In US11957680B2, “Pyruvate kinase activators for use in treating blood disorders” (Agios Pharmaceuticals, Inc., priority 2017, dated 2024):
pEC50: −log10 of the molar value.

Tests used:
wild type PKR [1] = biological target: T1, wild type PKR (Homo sapiens, UniProt P30613); experiment: PKR (wild type) enzyme AC50 assay, LDH/NADH-coupled, absorbance at 340 nm; assay type: biochemical; settings: Table 4, AC50, enzyme assay; for pEC50: read-out: PKR WT
Outline: (§1)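 In this coupled kinetic format, PKR converts PEP and ADP to pyruvate, which LDH reduces while oxidising NADH. Test compounds, diluted from 10 mM DMSO stocks to a 100 μM top concentration, were preincubated 60 min before ADP was added.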

PKR K410E = PKR K410E (Homo sapiens, UniProt P30613, K410E); experiment: PKR mutant assay (K410E), AC50, LDH/NADH-coupled, absorbance at 340 nm; assay type: biochemical; settings: Table 4; AC50, enzyme assay
Outline: as §1

PKR R510Q = PKR R510Q (Homo sapiens, UniProt P30613, R510Q); experiment: PKR mutant assay (R510Q), AC50, LDH/NADH-coupled, absorbance at 340 nm; assay type: biochemical; settings: Table 4, AC50, enzyme assay; for pEC50: read-out: PK R510Q
Outline: as §1

wild type PKR [2] = biological target: T1, wild type PKR; experiment: Cell based ATP assay in purified red blood cells (Cell-Titer-Glo); design: endogenous in cells; host or cells: purified red blood cells from healthy volunteers; settings: Table 4; AC50, RBCs, overnight at 37° C., ATP levels
Outline: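 ATP levels were quantified by Cell-Titer-Glo after overnight 37 °C exposure of cells to compound (1:4 dilution series, 0.1% DMSO final). The cells were human erythrocytes, filter-purified to remove leukocytes and plated at 1×10^7 cells/mL in AGAM medium.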

PKR K410E, sequence (P30613 whole entry K410E): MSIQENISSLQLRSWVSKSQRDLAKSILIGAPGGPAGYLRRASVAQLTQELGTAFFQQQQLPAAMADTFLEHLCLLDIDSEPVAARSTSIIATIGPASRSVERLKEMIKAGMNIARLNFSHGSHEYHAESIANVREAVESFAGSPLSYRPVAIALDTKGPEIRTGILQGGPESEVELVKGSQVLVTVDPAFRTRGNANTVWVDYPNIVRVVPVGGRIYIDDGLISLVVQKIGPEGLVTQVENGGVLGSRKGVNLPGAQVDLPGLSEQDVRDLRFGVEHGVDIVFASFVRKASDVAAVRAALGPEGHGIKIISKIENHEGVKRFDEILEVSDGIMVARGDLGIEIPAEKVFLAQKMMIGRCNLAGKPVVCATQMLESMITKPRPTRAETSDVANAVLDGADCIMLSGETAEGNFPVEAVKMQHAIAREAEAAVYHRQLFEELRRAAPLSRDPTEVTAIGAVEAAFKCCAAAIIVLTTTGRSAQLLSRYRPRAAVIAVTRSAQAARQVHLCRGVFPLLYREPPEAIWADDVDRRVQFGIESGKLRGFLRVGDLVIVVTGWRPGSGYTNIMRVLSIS
T1 sequence (P30613 whole entry): as the sequence (P30613 whole entry K410E) above, with E410K counted along it
PKR R510Q, sequence (P30613 whole entry R510Q): as the sequence (P30613 whole entry K410E) above, with E410K, R510Q counted along it

pEC50 (wild type PKR [1]) | PKR K410E (PKR K410E) | PK R510Q (PKR R510Q) | Cell based ATP assay (wild type PKR [2]) | pEC50 (PKR K410E) | pEC50 (PKR R510Q) | PKR WT (wild type PKR [1]) | pEC50 (wild type PKR [2]) | SMILES
< 6.10 | No Fit | No Fit | No Fit | – | – | – | – | O=c1c2c(cnn1Cc1ccccc1)c1sc(Cc3ccccn3)nc1n2-c1ccccc1 [Compound 405]
< 6.10 | – | – | No Fit | < 6.10 | < 6.10 | – | – | Cn1ccc(Cn2ncc3c4sc(CCc5cccnc5)nc4n(C)c3c2=O)n1 [Compound 406]
– | – | – | No Fit | < 6.10 | > 6.52 | No Fit | – | O=c1c2c(cnn1Cc1ccccc1)c1sc(Cc3cc[nH]n3)nc1n2Cc1ccccc1 [Compound 407]
< 6.10 | – | – | – | < 6.10 | 6.10 to 6.52 | – | < 6.00 | O=c1c2c(cnn1Cc1ccccc1)c1sc(Cc3cc[nH]n3)nc1n2C1CC1 [Compound 408]
< 6.10 | No Fit | No Fit | No Fit | – | – | – | – | CSc1nc2c(s1)c1cnn(Cc3ccccc3)c(=O)c1n2-c1nccs1 [Compound 409]
– | – | No Fit | – | < 6.10 | – | No Fit | < 6.00 | CS(=O)(=O)c1nc2c(s1)c1cnn(Cc3ccccc3)c(=O)c1n2-c1nccs1 [Compound 410]
< 6.10 | – | – | No Fit | < 6.10 | < 6.10 | – | – | O=c1c2c(cnn1Cc1ccccc1)c1sc(Cc3ccccn3)nc1n2-c1nccs1 [Compound 411]
